The values that follow come from article PMC6072243 (ACS Omega, 2018).

In one assay the target is JNK3 (Homo sapiens, UniProt P53779). As to the kind of experiment: JNK3 enzyme-linked immunosorbent assay. In kind it is biochemical.
The next assay has as its target p38α MAPK (Homo sapiens, UniProt Q16539). Kind of assay: p38α MAPK enzyme-linked immunosorbent assay. It is filed as biochemical. As to conditions: for fold higher activity for p38α MAPK than for JNK3: ratio of IC50 values; for inhibition at 10 µM: read-out: Percent inhibition of p38α MAPK at indicated concentration.

The structures appear in SMILES notation. Like-named read-outs stand apart in the source and are kept apart here.

Chain of JNK3 (P53779 whole entry): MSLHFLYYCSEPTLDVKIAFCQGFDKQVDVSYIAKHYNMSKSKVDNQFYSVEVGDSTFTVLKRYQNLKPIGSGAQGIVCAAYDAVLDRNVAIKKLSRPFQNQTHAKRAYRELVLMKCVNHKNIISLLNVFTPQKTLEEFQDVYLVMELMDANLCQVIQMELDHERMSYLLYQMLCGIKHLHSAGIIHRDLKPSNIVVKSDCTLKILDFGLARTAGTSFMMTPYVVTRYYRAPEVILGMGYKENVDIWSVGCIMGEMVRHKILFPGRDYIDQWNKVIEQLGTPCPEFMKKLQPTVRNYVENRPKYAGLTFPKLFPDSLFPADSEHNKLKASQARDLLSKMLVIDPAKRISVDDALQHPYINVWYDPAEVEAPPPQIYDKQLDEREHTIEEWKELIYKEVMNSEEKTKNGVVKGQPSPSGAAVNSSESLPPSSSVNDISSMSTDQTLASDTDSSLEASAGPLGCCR
Chain of p38α MAPK (Q16539 whole entry): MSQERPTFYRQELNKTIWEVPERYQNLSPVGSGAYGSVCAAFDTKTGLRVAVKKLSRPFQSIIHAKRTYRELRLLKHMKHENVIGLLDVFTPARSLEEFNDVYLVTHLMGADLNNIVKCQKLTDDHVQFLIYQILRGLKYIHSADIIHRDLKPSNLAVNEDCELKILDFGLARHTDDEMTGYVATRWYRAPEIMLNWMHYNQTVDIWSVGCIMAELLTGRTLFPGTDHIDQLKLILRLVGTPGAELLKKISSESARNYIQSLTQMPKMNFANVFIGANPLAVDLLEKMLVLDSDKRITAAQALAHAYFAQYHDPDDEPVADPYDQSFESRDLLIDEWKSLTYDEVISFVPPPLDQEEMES

With `CSc1nc(-c2ccc(F)cc2)c(-c2ccnc(Nc3ccc(N4CCOCC4)cc3)c2)[nH]1` [Compound 5, 4-(4-(4-Fluorophenyl)-2-(methylthio)-1H-imidazol-5-yl)-N-(4-morpholinophenyl)pyridin-2-amine], the figures for the concentration for half-maximal inhibition (IC50) against JNK3 and at p38α MAPK were 38 ± 2 nM and 17 ± 1 nM, respectively.

For the molecule `O=c1[nH]c(-c2ccc(F)cc2)c(-c2ccnc(Nc3ccc(N4CCOCC4)cc3)c2)[nH]1` [Compound 8, 4-(4-Fluorophenyl)-5-(2-((4-morpholinophenyl)amino)pyridin-4-yl)-1,3-dihydro-2H-imidazol-2-one], the half-inhibitory concentration (IC50) (usually the concentration that gives 50% inhibition) worked out at 142 ± 28 nM against JNK3 and 34 ± 4 nM against p38α MAPK.

In the case of `CCc1nc(-c2ccc(F)cc2)c(-c2ccnc(Nc3ccc(N4CCOCC4)cc3)c2)[nH]1` [Compound 13, 4-(2-Ethyl-4-(4-fluorophenyl)-1H-imidazol-5-yl)-N-(4-morpholinophenyl)pyridin-2-amine], the IC50 against JNK3 is 34 ± 0.2 nM; at p38α MAPK, 9 ± 4 nM.

Take `c1ccc(-c2nc[nH]c2-c2ccnc(Nc3ccc(N4CCOCC4)cc3)c2)cc1` [Compound 18a, N-(4-Morpholinophenyl)-4-(4-phenyl-1H-imidazol-5-yl)pyridin-2-amine]: the results for the half-inhibitory concentration (IC50) against JNK3 and against p38α MAPK were 37 ± 3 nM and 24 ± 3 nM, respectively.

Consider `Clc1ccccc1-c1nc[nH]c1-c1ccnc(Nc2ccc(N3CCOCC3)cc2)c1` [Compound 18b, 4-(4-(2-Chlorophenyl)-1H-imidazole-5-yl)-N-(4-morpholinophenyl)pyridin-2-amine], for which the IC50 on JNK3 was 60 ± 8 nM; against p38α MAPK it was 38 ± 2 nM.

In the case of `Brc1ccccc1-c1nc[nH]c1-c1ccnc(Nc2ccc(N3CCOCC3)cc2)c1` [Compound 18c, 4-(4-(2-Bromophenyl)-1H-imidazol-5-yl)-N-(4-morpholinophenyl)pyridin-2-amine], the values for the concentration for half-maximal inhibition (IC50) at JNK3 and on p38α MAPK were 131 ± 21 nM and 61 ± 2 nM, respectively.

As for `FC(F)(F)c1cccc(-c2nc[nH]c2-c2ccnc(Nc3ccc(N4CCOCC4)cc3)c2)c1` [Compound 18d, N-(4-Morpholinophenyl)-4-(4-(3-(trifluoromethyl)phenyl)-1H-imidazol-5-yl)pyridin-2-amine], the IC50 against JNK3 stood at 143 ± 12 nM. Further, at p38α MAPK, the IC50 is 22 ± 3 nM and the “fold higher activity for p38α MAPK than for JNK3” value turned out to be 6 fold.

`c1ccc2cc(-c3nc[nH]c3-c3ccnc(Nc4ccc(N5CCOCC5)cc4)c3)ccc2c1` [Compound 18e, N-(4-Morpholinophenyl)-4-(4-(naphthalen-2-yl)-1H-imidazol-5-yl)pyridin-2-amine]: the IC50 stood at 31 ± 3 nM against JNK3 and 16 ± 3 nM at p38α MAPK.

`Cn1cc(-c2nc[nH]c2-c2ccnc(Nc3ccc(N4CCOCC4)cc3)c2)cn1` [Compound 18f, 4-(4-(1-Methyl-1H-pyrazol-4-yl)-1H-imidazol-5-yl)-N-(4-morpholinophenyl)pyridin-2-amine]: the IC50 on JNK3 turned out to be 758 ± 49 nM; against p38α MAPK it was 3260 nM.

As to `c1cc(-c2[nH]cnc2C2CCCCC2)cc(Nc2ccc(N3CCOCC3)cc2)n1` [Compound 18g, 4-(4-Cyclohexyl-1H-imidazol-5-yl)-N-(4-morpholinophenyl)pyridin-2-amine], the IC50 against JNK3 came out at 1720 nM; at p38α MAPK it was 726 ± 21 nM. For the same molecule, at p38α MAPK, the “fold higher activity for p38α MAPK than for JNK3” value amounted to 2 fold.

As for `c1cc(-c2[nH]cnc2C2CCCC2)cc(Nc2ccc(N3CCOCC3)cc2)n1` [Compound 18h, 4-(4-Cyclopentyl-1H-imidazol-5-yl)-N-(4-morpholinophenyl)pyridin-2-amine], the IC50 at JNK3 (read-out: IC50 ± SD JNK3, ELISA, mean of three experiments (SP600125 n = 16)) amounted to 2190 nM; against p38α MAPK, 1720 nM.

`c1cc(-c2[nH]cnc2C2CCC2)cc(Nc2ccc(N3CCOCC3)cc2)n1` [Compound 18i, 4-(4-Cyclobutyl-1H-imidazol-5-yl)-N-(4-morpholinophenyl)pyridin-2-amine]: the IC50 against JNK3 was 1760 nM; at p38α MAPK it was 2260 nM.

Take `c1cc(-c2[nH]cnc2C2CC2)cc(Nc2ccc(N3CCOCC3)cc2)n1` [Compound 18j, 4-(4-Cyclopropyl-1H-imidazol-5-yl)-N-(4-morpholinophenyl)pyridin-2-amine]: the half-inhibitory concentration (IC50) against JNK3 came to 1080 nM; on p38α MAPK, 4020 nM.

In the case of `CC(C)(C)c1nc[nH]c1-c1ccnc(Nc2ccc(N3CCOCC3)cc2)c1` [Compound 18k, 4-(4-(tert-Butyl)-1H-imidazol-y-yl)-N-(4-morpholinophenyl)pyridin-2-amine], the IC50 on JNK3 and against p38α MAPK was above 10000 nM throughout. For the same molecule, the results for the inhibition at 10 µM on JNK3 (read-out: Percent inhibition of JNK3 at indicated concentration) and at p38α MAPK were 32% and 41%, respectively.

In the case of `CC(C)c1nc[nH]c1-c1ccnc(Nc2ccc(N3CCOCC3)cc2)c1` [Compound 18l, 4-(4-Isopropyl-1H-imidazol-5-yl)-N-(4-morpholinophenyl)pyridin-2-amine], the IC50 on JNK3 is 2830 nM. On p38α MAPK, the half-inhibitory concentration (IC50) turned out to be 10000 nM and the inhibition at 10 µM is 50%.

For `Cc1nc[nH]c1-c1ccnc(Nc2ccc(N3CCOCC3)cc2)c1` [Compound 38, 4-(4-Methyl-1H-imidazol-5-yl)-N-(4-morpholinophenyl)pyridin-2-amine], at JNK3, the IC50 is 833 ± 139 nM. Besides, on p38α MAPK, the half-maximal inhibitory concentration (IC50) is above 10000 nM and the inhibition at 10 µM was 41%.

As for `CCc1nc[nH]c1-c1ccnc(Nc2ccc(N3CCOCC3)cc2)c1` [Compound 39, 4-(4-Ethyl-1H-imidazol-5-yl)-N-(4-morpholinophenyl)pyridin-2-amine], on p38α MAPK, the half-maximal inhibitory concentration (IC50) is above 10000 nM and the inhibition at 10 µM turned out to be 34%.

Take `CSc1ncc(-c2ccnc(Nc3ccc(N4CCOCC4)cc3)c2)[nH]1` [Compound 43, 4-(2-(Methylthio)-1H-imidazol-5-yl)-N-(4-morpholinophenyl)pyridin-2-amine]: the half-maximal inhibitory concentration (IC50) on JNK3 was 562 ± 21 nM. For the same molecule, at p38α MAPK, the IC50 is above 10000 nM and the inhibition at 10 µM was 43%.

With `CCc1nc(SC)[nH]c1-c1ccnc(Nc2ccc(N3CCOCC3)cc2)c1` [Compound 45, 4-(4-Ethyl-2-(methylthio)-1H-imidazol-5-yl)-N-(4-morpholinophenyl)pyridin-2-amine], the IC50 against JNK3 was 1100 nM. In addition, at p38α MAPK, the concentration for half-maximal inhibition (IC50) was above 10000 nM and the inhibition at 10 µM is 38%.

Regarding `Cc1[nH]c(N)nc1-c1ccnc(Nc2ccc(N3CCOCC3)cc2)c1` [Compound 47, 4-(2-Amino-5-methyl-1H-imidazol-4-yl)-N-(4-morpholinophenyl)pyridin-2-amine], on p38α MAPK, the IC50 is above 10000 nM and the inhibition at 10 µM worked out at 43%.

`CSc1nc(C)c(-c2ccnc(NC(C)C(C)C)c2)[nH]1` (stereo not shown) [Compound 48a, 4-(4-Methyl-2-(methylthio)-1H-imidazol-5-yl)-N-(3-methylbutan-2-yl)pyridin-2-amine] yielded an IC50 against JNK3 of 2590 nM. Moreover, at p38α MAPK, the half-maximal inhibitory concentration (IC50) was above 10000 nM and the inhibition at 10 µM was found to be 34%.

For the molecule `CSc1nc(C)c(-c2ccnc(NC(C)c3ccccc3)c2)[nH]1` (stereo not shown) [Compound 48b, 4-(4-Methyl-2-(methylthio)-1H-imidazol-5-yl)-N-(1-phenylethyl)pyridin-2-amine], the results for the IC50 on JNK3 and against p38α MAPK were 7610 nM and 3460 nM, respectively.

Molecule `CSc1nc(C)c(-c2ccnc(NC3CCC3)c2)[nH]1` [Compound 48c, N-Cyclobutyl-4-(4-methyl-2-(methylthio)-1H-imidazol-5-yl)pyridin-2-amine] displayed an IC50 on JNK3 of 3040 nM. On p38α MAPK, the IC50 is above 10000 nM and the inhibition at 10 µM is 36%.

Turning to `CSc1nc(C)c(-c2ccnc(NC3CCCC3)c2)[nH]1` [Compound 48d, N-Cyclopentyl-4-(4-methyl-2-(methylthio)-1H-imidazol-5-yl)pyridin-2-amine], the IC50 against JNK3 is 1570 nM. At p38α MAPK, the concentration for half-maximal inhibition (IC50) was above 10000 nM and the inhibition at 10 µM amounted to 47%.

As for `CSc1nc(C)c(-c2ccnc(NC3CCCCC3)c2)[nH]1` [Compound 48e, N-Cyclohexyl-4-(4-methyl-2-(methylthio)-1H-imidazol-5-yl)pyridin-2-amine], the concentration for half-maximal inhibition (IC50) against JNK3 is 671 ± 74 nM; against p38α MAPK it was above 10000 nM. Further, the inhibition at 10 µM on p38α MAPK amounted to 31%.

Take `CSc1nc(C)c(-c2ccnc(NC3CCOCC3)c2)[nH]1` [Compound 48f, 4-(4-Methyl-2-(methylthio)-1H-imidazol-5-yl)-N-(tetrahydro-2H-pyran-4-yl)pyridin-2-amine]: at p38α MAPK, the half-maximal inhibitory concentration (IC50) is above 10000 nM and the inhibition at 10 µM was found to be 27%.

The molecule `CSc1nc(C)c(-c2ccnc(N[C@H]3CC[C@H](O)CC3)c2)[nH]1` [Compound 48g, trans-4-((4-(4-Methyl-2-(methylthio)-1H-imidazol-5-yl)pyridin-2-yl)amino)cyclohexan-1-ol] registered an IC50 on JNK3 of 457 ± 72 nM. Besides, on p38α MAPK, the IC50 was above 10000 nM and the inhibition at 10 µM stood at 35%.

As for `CSc1nc(C)c(-c2ccnc(N[C@H]3CC[C@H](N)CC3)c2)[nH]1` [Compound 48h, trans-N1-(4-(4-Methyl-2-(methylthio)-1H-imidazol-5-yl)pyridin-2-yl)cyclohexane-1,4-diamine], on JNK3, half-maximal inhibition (IC50) required 941 ± 75 nM and the “fold drop in potency on JNK3 versus parent compound 44” value was 3 fold. Also, at p38α MAPK, the 50% inhibitory concentration (IC50) is above 10000 nM and the inhibition at 10 µM stood at 46%.

For the molecule `CSc1nc(C)c(-c2ccnc(N[C@H]3CC[C@H](NC(C)=O)CC3)c2)[nH]1` [Compound 48i, N-(trans-4-((4-(4-Methyl-2-(methylthio)-1H-imidazol-5-yl)pyridin-2-yl)amino)cyclohexyl)acetamide], the 50% inhibitory concentration (IC50) on JNK3 is 819 ± 141 nM. Moreover, on p38α MAPK, the IC50 is above 10000 nM and the inhibition at 10 µM is 37%.

`CSc1nc(C)c(-c2ccnc(N[C@H]3CC[C@H](NC(=O)c4ccccc4)CC3)c2)[nH]1` [Compound 48j, N-(trans-4-((4-(4-Methyl-2-(methylthio)-1H-imidazol-5-yl)pyridin-2-yl)amino)cyclohexyl)benzamide]: on p38α MAPK, the IC50 is above 10000 nM and the inhibition at 10 µM is 12%.

Regarding `CSc1nc(C)c(-c2ccnc(N[C@H]3CC[C@H](NC(=O)C(C)(C)C)CC3)c2)[nH]1` [Compound 48l, N-(trans-4-((4-(4-Methyl-2-(methylthio)-1H-imidazol-5-yl)pyridin-2-yl)amino)cyclohexyl)pivalamide], on p38α MAPK, the IC50 is above 10000 nM and the inhibition at 10 µM worked out at 13%.

In turn, `Oc1c2ccccc2c2c3c(cccc13)N=N2` [SP600125, reference compound] had an IC50 on JNK3 of 171 ± 36 nM.
